Patent publication US11453640B2, “Small molecules for disrupting the super elongation complex and inhibiting transcription elongation for cancer therapy” (NORTHWESTERN UNIVERSITY, priority 2018, dated 2022)

Molecular target: T1, AFF4-CCNT1 interaction (GST-CCNT1 AA 1-300 and biotin-AFF4 peptide AA 32-67) (Homo sapiens, UniProt O60563)
T1 construct: Recombinant GST-CCNT1 (1-300), which was purified by Glutathione Superflow Agarose from Rosetta cells; VCPBIO (peptide synthesis) Addgene P#432; host or cells: Rosetta cells
Test: AlphaLISA assay of the AFF4-CCNT1 interaction (Alpha Screen)
Assay type: binding
From the text: FIG. 1. Peptidomimetic identification of disruptors of the AFF4-CCNT1 interaction within the Super Elongation Complex. (A) Schematic for the identification of small molecule inhibitors of the AFF4-CCNT1 interaction using in silico high-throughput screening. Compounds from the ZINC database were docked with the AFF4-CCNT1 structure (4IMY) using a three-tier glide-docking algorithm, which led to 40 candidates. Residues forming the deep binding pocket of CCNT1 are labeled orange and residues of the AFF4 peptide are labeled red. (B) Validation screening identified KL-1 as a potential SEC disruptor using AlphaLISA screening. GST-CCNT1 (AA 1-300) and biotin-labeled AFF4 peptide (AA 32-67) were used to measure the AFF4-CCNT1 interaction with the AlphaLISA assay. (C) Similarity search for KL-1-like molecules identified KL-2. The peptidomimetic potential of KL-1 and KL-2 can be seen by overlaying them with the AFF4 peptide LFAEP structure. (D) Dose-dependent inhibition of KL-1 and KL-2 on AFF4-CCNT1 interaction. The Ki constants of both compounds were measured with the AlphaLISA assays. (E) Treatment of HEK293T cells with KL-1 and KL-2 results in reduced protein levels of SEC components AFF1 and AFF4 but not CDK9 or CCNT1. HEK293T cells were treated with 20 μM of SEC inhibitors KL-1 or KL-2 for 6 hr. 5 μl, 10 and 20 μl cell lysates were loaded and the protein levels of AFF1, AFF4, CCNT1, CDK9 and Tubulin (load control) were determined by western blotting.
FIG. 8, related to FIG. 1. Peptidomimetic identification of disruptors of the AFF4-CCNT1 interaction within the Super Elongation Complex. (A) Schematic of AlphaLISA assay of the AFF4-CCNT1 interaction. Anti-GST AlphaLISA acceptor beads and AlphaScreen streptavidin donor beads (Perkin Elmer) were used to detect the interaction of GST-CCNT1 (AA1-300) and biotin-AFF4 (AA32-67). (B-C) Optimization of the AlphaLISA assay with various biotin-AFF4 peptide and GST-CCNT1 concentrations. No CCNT1 (B) and mutant AFF4 (C) were used as negative controls. Data are represented as Mean+/−SD. (D) Scheme for chemical synthesis of SEC inhibitors KL-1 and KL-2. Reagents and conditions: a. LDA, THF, −78° C., 15 min., then diethyl oxalate, −78° C. to room temperature. b. NaOH, THF/H2O, room temperature, 15 min. c. EEDQ, 5-chloro-2-methylaniline, THF, room temperature, 24 hr. […] 293T cells were treated with 20 μM of KL-1 or KL-2 for 6 hr, and the protein levels of BRD2, BRD4, Pol II (RPB1), SPT5, MED26, MYC, HSP90 (load control) and Tubulin (load control) were measured by western blotting. (F) Treatment of HCT-116 cells with KL-1 and KL-2 reduced protein levels of SEC components AFF1 and AFF4 but not CDK9 or CCNT1. HCT-116 cells were treated with 20 μM of KL-1 or KL-2 for 6 hr, and the protein levels of AFF1, AFF4, CCNT1, CDK9 and Tubulin (load control) were determined by western blotting. (G-H) Treating cells with KL-1 and KL-2 results in reduced levels of AFF 1 and AFF4. FLAG-AFF1 (G) and FLAG-AFF4 (H) were expressed under the Tet-inducible promoter in HEK293T cells. Cells were treated with 20 μM of the indicated inhibitors for 6 hr for western blotting. […] RNA-seq was performed in HEK293T cells treated for 12 hr with 20 μM of the indicated inhibitors. The log2CPM (counts per million) of the SEC subunits were calculated with HTseq. KL-1 and KL-2 had no significant effects on CCNT1, CDK9 and AFF1 expression, but modest increases in the mRNA levels of AFF4 and ELL2 were observed (n=3). Unpaired two-way ANOVA was used for the statistical testes. **,p<0.05, ***,p<0.001.
To test if candidate compounds can disrupt the AFF4-CCNT1 interaction in vitro, we established and optimized a bead-based AlphaLISA assay with recombinant CCNT1 (1-300) protein and synthesized Biotin-AFF4 peptides (AA 32-67) (FIGS. 8A, 8B and 8C).
AlphaLISA Assay. The interaction of CCNT1-AFF4 was measured by Perkin Elmer's bead-based AlphaLISA assays. […]

T1 sequence (O60563 1-300): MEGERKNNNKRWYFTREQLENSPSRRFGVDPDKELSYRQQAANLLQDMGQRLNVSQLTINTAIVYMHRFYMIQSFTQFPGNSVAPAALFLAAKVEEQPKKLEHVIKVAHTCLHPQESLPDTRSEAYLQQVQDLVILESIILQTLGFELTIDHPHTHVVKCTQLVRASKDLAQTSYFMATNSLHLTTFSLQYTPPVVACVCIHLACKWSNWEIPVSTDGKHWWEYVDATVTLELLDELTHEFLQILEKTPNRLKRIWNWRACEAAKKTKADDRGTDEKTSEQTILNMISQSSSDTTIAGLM

## COc1cccc(C(=O)CC(=O)C(=O)Nc2cc(Cl)ccc2C)c1 [KL-1, N-(5-chloro-2-methylphenyl)-4-oxo-4-(3-methoxyphenyl)-2-oxobutanamide]
AlphaLISA, IC50 converted to Ki with the Cheng and Prusoff equation, read-out: Ki, inhibition of the AFF4-CCNT1 interaction
  Ki: 3.48 µM
Tested at 20 μM
  disruption of the AFF4-CCNT1 interaction: could inhibit the interaction of AFF4-CCNT1
